In one assay the test system is Mus musculus. The assay is described as follows: In vivo analgesic activity in hot plate test after subcutaneous administration in mice. To be noted: sc. It is filed as functional. In general terms: Thermal pain tests record how soon the animal reacts.
For the next assay, the target named is Mu-type opioid receptor (Rattus norvegicus, UniProt P33535). The assay can be described thus: Inhibition of [3H]dihydromorphine (1 nM) binding to mu opioid receptor of rat brain homogenate.
Assay [1] addresses T1, Delta-type opioid receptor (Rattus norvegicus, UniProt P33533). The assay can be described thus: Inhibition of [3H]-[D-Pen2, D-Pen5]-enkephalin (2 nM) to Opioid receptor delta 1 of male Sprague-Dawley rat brain homogenate.
Assay [2] deals with T2, Kappa-type opioid receptor (Rattus norvegicus, UniProt P34975). The assay is described as follows: […] to Opioid receptor kappa 1 of rat brain homogenate; Not detectable. Format: tissue-based.
The target of assay [3] is T2, Kappa-type opioid receptor. The assay can be described thus: Inhibition of 9 (2 nM) binding to Opioid receptor kappa 1 of rat brain homogenate. It is filed as tissue-based.
Assay [4] concerns the target T1, Delta-type opioid receptor. The assay can be described thus: Inhibition of [3H]-[D-Pen2, D-Pen5]-enkephalin (2 nM) to Opioid receptor delta 1 of male Sprague-Dawley rat brain homogenate; Not detectable.

Chain of Mu-type opioid receptor (P33535 whole entry): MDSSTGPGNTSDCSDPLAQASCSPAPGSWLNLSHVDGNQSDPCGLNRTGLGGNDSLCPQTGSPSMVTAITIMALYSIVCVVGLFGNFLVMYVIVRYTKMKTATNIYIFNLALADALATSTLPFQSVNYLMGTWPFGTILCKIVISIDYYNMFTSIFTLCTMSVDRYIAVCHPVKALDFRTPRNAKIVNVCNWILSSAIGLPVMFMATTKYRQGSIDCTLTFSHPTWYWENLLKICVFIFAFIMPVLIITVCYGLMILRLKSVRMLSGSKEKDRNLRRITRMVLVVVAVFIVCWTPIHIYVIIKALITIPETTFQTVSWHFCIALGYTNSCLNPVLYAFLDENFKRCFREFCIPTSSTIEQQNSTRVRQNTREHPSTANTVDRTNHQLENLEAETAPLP
T1 sequence (P33533 whole entry): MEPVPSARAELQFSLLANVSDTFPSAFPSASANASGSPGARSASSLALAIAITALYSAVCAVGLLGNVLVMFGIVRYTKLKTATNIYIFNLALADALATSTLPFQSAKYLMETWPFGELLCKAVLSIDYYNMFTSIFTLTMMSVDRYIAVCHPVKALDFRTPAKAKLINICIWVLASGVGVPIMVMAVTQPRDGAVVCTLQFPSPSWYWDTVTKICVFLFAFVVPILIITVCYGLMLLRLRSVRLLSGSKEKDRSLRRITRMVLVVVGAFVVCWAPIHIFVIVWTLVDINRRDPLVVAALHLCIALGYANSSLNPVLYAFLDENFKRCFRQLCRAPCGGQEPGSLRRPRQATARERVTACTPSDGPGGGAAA
T2 sequence (P34975 whole entry): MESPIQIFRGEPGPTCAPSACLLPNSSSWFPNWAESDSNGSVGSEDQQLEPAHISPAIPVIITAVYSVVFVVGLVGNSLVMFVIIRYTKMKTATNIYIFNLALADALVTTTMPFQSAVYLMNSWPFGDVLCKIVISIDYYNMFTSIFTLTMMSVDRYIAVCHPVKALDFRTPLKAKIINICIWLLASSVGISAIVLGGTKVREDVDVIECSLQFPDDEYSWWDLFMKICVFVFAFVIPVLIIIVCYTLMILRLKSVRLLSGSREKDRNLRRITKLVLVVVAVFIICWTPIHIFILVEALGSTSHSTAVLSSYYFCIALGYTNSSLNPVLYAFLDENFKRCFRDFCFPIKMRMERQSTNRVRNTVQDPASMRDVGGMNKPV

In general, ED50 refers to the dose at which the effect has come halfway, by size or by number of responders. Low readings indicate an effect at a small dose, high ones a need for a large dose. The Ki is the dissociation constant of the complex between target and ligand, obtained from inhibition or displacement. Turning to `CC[C@@H](C)N(C[C@H](O)[C@@H]1CCC(=O)N1Cc1ccccc1Cl)[C@@H](C)CC`, in the assay with Mus musculus, the 50% effect level (ED50) was put at a dose of 1.5 mg/kg. Besides, the Ki was 32 nM at Mu-type opioid receptor, > 5000 nM in assay [1] and “Not Active” in assay [2].

Regarding `CC[C@@H](C)N(C[C@H](O)[C@H]1CCC(=O)N1Cc1ccccc1Cl)[C@H](C)CC`, the ED50 with Mus musculus is 10.4 mg/kg. Besides, the figures for the Ki (at Mu-type opioid receptor; in assay [1]; in assay [3]) were 100 nM, 1850 nM and > 5000 nM, respectively.

In the case of `CC[C@@H](C)N(C[C@H](O)[C@@H]1CCC(=O)N1Cc1ccccc1Cl)[C@H](C)CC`, in the assay on Mus musculus, it took a dose of 0.01 mg/kg to reach the 50% effect level (ED50). Further, the Ki on Mu-type opioid receptor was determined as 0.25 nM; in assay [1] it was 265 nM; in assay [3] it was 62.5 nM.

Turning to `CC[C@H](C)N(C[C@H](O)[C@H]1CCC(=O)N1Cc1ccccc1Cl)[C@@H](C)CC`, the ED50 in the assay on Mus musculus is > 100 mg/kg. Moreover, the Ki is > 5000 nM at Mu-type opioid receptor, > 5000 nM in assay [1] and 270 nM in assay [3].

In the assay on Mus musculus, `CC[C@@H](C)N(C[C@@H](O)[C@H]1CCC(=O)N1Cc1ccccc1Cl)[C@@H](C)CC` displayed an ED50 of 14.3 mg/kg. The Ki worked out at 87 nM on Mu-type opioid receptor, 1780 nM in assay [1] and 260 nM in assay [3].

As for `CC[C@H](C)N(C[C@@H](O)[C@@H]1CCC(=O)N1Cc1ccccc1Cl)[C@@H](C)CC`, in the assay with Mus musculus, the ED50 was > 100 mg/kg. Further, the results for the Ki (on Mu-type opioid receptor; in assay [1]; in assay [3]) were 145 nM, > 5000 nM and > 5000 nM, respectively.

Take `CC[C@H](C)N(C[C@H](O)[C@@H]1CCC(=O)N1Cc1ccccc1Cl)[C@@H](C)CC`: the ED50 in the assay with Mus musculus was > 100 mg/kg. Besides, the Ki was 2250 nM at Mu-type opioid receptor, > 5000 nM in assay [1] and > 5000 nM in assay [3].

`CC[C@@H](C)N(C[C@@H](O)[C@H]1CCC(=O)N1Cc1ccccc1Cl)[C@H](C)CC` displayed an ED50 in the assay on Mus musculus of 0.47 mg/kg. Besides, the values for the Ki (on Mu-type opioid receptor; in assay [1]; in assay [3]) were 35 nM, > 5000 nM and 4850 nM, respectively.

On to `CC[C@@H](C)N(C[C@@H](O)[C@@H]1CCC(=O)N1Cc1ccccc1Cl)[C@H](C)CC`, for which the ED50 in the assay on Mus musculus is > 100 mg/kg. In addition, the figures for the Ki (at Mu-type opioid receptor; in assay [1]; in assay [3]) were 390 nM, 550 nM and > 5000 nM, respectively.

On to `CC[C@@H](C)N(C[C@H](O)[C@H]1CCC(=O)N1Cc1ccccc1Cl)[C@@H](C)CC`, for which, in the assay with Mus musculus, the ED50 was > 100 mg/kg. Besides, the Ki at Mu-type opioid receptor is > 5000 nM; in assay [4] it was “Not Active”; in assay [3], 198 nM.

On to `CC[C@H](C)N(C[C@@H](O)[C@H]1CCC(=O)N1Cc1ccccc1Cl)[C@@H](C)CC`, for which the ED50 in the assay with Mus musculus was > 100 mg/kg. The figures for the Ki (at Mu-type opioid receptor; in assay [4]; in assay [2]) were > 5000 nM, “Not Active” and “Not Active”, respectively.

Take `CC[C@@H](C)N(C[C@@H](O)[C@@H]1CCC(=O)N1Cc1ccccc1Cl)[C@@H](C)CC`: the ED50 in the assay with Mus musculus is > 100 mg/kg. The Ki on Mu-type opioid receptor is 340 nM; in assay [1], > 5000 nM; in assay [3], 3650 nM.

In the case of `CN1CC[C@]23c4c5ccc(O)c4O[C@H]2[C@@H](O)C=C[C@H]3[C@H]1C5` [MORPHINE], the ED50 in the assay on Mus musculus turned out to be 4.6 mg/kg.

(Values after ChEMBL document CHEMBL1128854, “Stereoselective synthesis and evaluation of all stereoisomers of Z4349, a novel and selective -opioid analgesic” (Bioorg Med Chem Lett, 1995).)
